Results from US12104178B2, “DHFR tunable protein regulation” (Obsidian Therapeutics, Inc., priority 2017, dated 2024).
Where two headings read alike, the source gives them in different places.

Experiments:
T cells [1] = assay: TMP dose and exposure time on membrane bound IL15 expression (Table 89); assay type: cell-based; conditions: T-cell
Description: For this purpose, T cells were activated with CD3/CD28 beads at 3:1 bead to T cell ratio in 24-well plates for 24 hrs. Lentivirus was added to wells. After 24 hrs, fresh media was added every 2-3 days to expand cells while maintaining cells at 0.5-1×10^6/ml. On day 11 of expansion.

HEK-293T cells = assay: DD-IL15 induction, human IL15 ELISA (Table 80); assay type: cell-based; conditions: DD-IL15 (OT-IL15-002, ecDHFR-IL15) in HEK-293T, TMP 24 hrs
Description: To test ligand dependent IL15 production, 1 million HEK-293T cells were plated in a 6-well plate in growth media containing DMEM and 10% FBS and incubated overnight at 37° C. at 5% CO2. Cells were then transfected with 100 ng of OT-IL15-001(constitutive) or OT-IL15-002 (ecDHFR-IL15) using Lipofectamine 2000 and incubated for 48 hrs. […] Media was collected and the undiluted samples or samples diluted 4, 16, 256, 1024, 4096 or 16384-fold were tested using human IL15 ELISA. The stabilization ratio was defined as fold change in IL15 expression with ligand treatment compared to treatment with DMSO (i.e. in the absence of ligand) with the same construct.

T cells [2] = conditions: human, 160 μM
Description: The percentage of divided cells within the CD4 and the CD8 populations of T cells was measured using FACS.

in vivo = conditions: Balb/C nu/nu, mouse, plasma
NK-92 cells [3] = assay: NK-92 activation markers with IL15 (Tables 82, 84); assay type: cell-based; conditions: for pSTAT5 (15 mins) / pSTAT5 (60 mins) / CD69 / CXCR4 / Granzyme B / IFNgamma / Perforin: NK-92 cells, fold change; for pSTAT5 (15 mins) / pSTAT5 (60 mins): FACS; for CD69 / CXCR4 / Granzyme B / IFNgamma / Perforin: activation marker by FACS
Description: (§1) The dependency of the NK-92 cells on cytokines for activation was tested. […] The cells were cultured for 18 hours in the presence of IL12 (10 ng/ml) or varying concentrations of IL15 (100 ng/ml, 20 ng/ml, 4 ng/ml, 0.8 ng/ml, 0.16 ng/ml, 0.032 ng/ml, 0.0064 ng/ml and 0.00128 ng/ml). NK-92 cell activation in response to IL15 and IL12 treatment was evaluated by FACS analysis using a panel of markers whose increased expression is associated with NK activation. These include NKG2D, CD71, CD69; chemokine receptors such as CCR5, CXCR4, and CXCR3, Perforin, Granzyme B and Interferon gamma (IFNg). Prior to FACS analysis for IFNg, cells were cultured for 4 hours with Brefeldin A. NK cells respond to external stimuli such as cytokines in their environment through the phosphorylation of proteins JAK/STAT, ERK, and p38/MAPK pathways which are important for cell activation, signaling and differentiation pathways. The phosphorylation of AKT, STAT3 and STAT5 in response to cytokine addition was measured by FACS. Since phosphorylation events are transient NK-92 cells were treated with the cytokines for 15 or 60 minutes, prior to the analysis.
as §1, with “of” for “of IL12 (10 ng/ml) or”, “IL15” for “IL15 and IL12”, “Perform,” for “Perforin,”

NK-92 cells [4] = assay: Cytokine dependent proliferation of NK-92, Jurkat and SupT1 cells; assay type: cell-based; conditions: 3 days
Description: The dependency of immune cells on cytokines for proliferation was tested in NK-92 cells and T cell lines Jurkat cells and SupT1 cells. Cells were seeded at 40,000 per well and cultured in the presence of IL2 or IL15 for 3 days.

Compound: COc1cc(Cc2cnc(N)nc2N)cc(OC)c1OC [TMP, Trimethoprim]
- EC50 (T cells [1]; 6 h, read-out: EC50, uM (% IL15 + IL15Ra+)): 0.021 µM
- EC50 (T cells [1]; 6 h, read-out: EC50, uM (total IL15 MFI)): 0.03 µM
- EC90 (T cells [1]; 6 h, read-out: EC90, uM (% IL15 + IL15Ra+)): 0.81 µM
- EC90 (T cells [1]; 6 h, read-out: EC90, uM (total IL15 MFI)): 0.88 µM
- EC50 (T cells [1]; 24 h, read-out: EC50, uM (% IL15 + IL15Ra+)): 0.035 µM
- EC50 (T cells [1]; 24 h, read-out: EC50, uM (total IL15 MFI)): 0.063 µM
- EC90 (T cells [1]; 24 h, read-out: EC90, uM (% IL15 + IL15Ra+)): 0.255 µM
- EC90 (T cells [1]; 24 h, read-out: EC90, uM (total IL15 MFI)): 0.75 µM
- EC50 (T cells [1]; read-out: EC50, uM (% IL15 + IL15Ra+)): 11.5 µM
- EC50 (T cells [1]; read-out: EC50, uM (total IL15 MFI)): 11.1 µM
- EC90 (T cells [1]; read-out: EC90, uM (% IL15 + IL15Ra+)): 59.6 µM
- EC90 (T cells [1]; read-out: EC90, uM (total IL15 MFI)): 66.9 µM
- TMP concentration in the plasma at early time points (100 mg/kg): 50 to 100 µM
- TMP concentration in the plasma at early time points (300 mg/kg): 100 to 150 µM
- TMP levels in the plasma 4 hours after dosing (all doses): Virtually no TMP levels were detected
- IL15 ELISA reading, 10 μM TMP (HEK-293T cells; media dilution 1-fold): 0.820
- IL15 ELISA reading, 10 μM TMP (HEK-293T cells; media dilution 4-fold): 0.287
- IL15 ELISA reading, 10 μM TMP (HEK-293T cells; media dilution 16-fold): 0.116
- IL15 ELISA reading, 10 μM TMP (HEK-293T cells; media dilution 64-fold): 0.073
- IL15 ELISA reading, 10 μM TMP (HEK-293T cells; media dilution 256-fold): 0.057
- IL15 ELISA reading, 10 μM TMP (HEK-293T cells; media dilution 1024-fold): 0.048
- IL15 ELISA reading, 10 μM TMP (HEK-293T cells; media dilution 4096-fold): 0.049
- IL15 ELISA reading, 10 μM TMP (HEK-293T cells; media dilution 16384-fold): 0.049
- Reduction in the percentage of divided cells (T cells [2]): 70-90%
- concentration at 0.083 h (in vivo; 30 mg/kg): 25.7 µM
- concentration at 0.25 h (in vivo; 30 mg/kg): 19.6 µM
- concentration at 0.5 h (in vivo; 30 mg/kg): 9.84 µM
- concentration at 1 h (in vivo; 30 mg/kg): 2.55 µM
- concentration at 2 h (in vivo; 30 mg/kg): 1.19 µM
- concentration at 4 h (in vivo; 30 mg/kg): 0.16 µM
- concentration at 8 h (in vivo; 30 mg/kg): 0.04 µM
- concentration at 0.083 h (in vivo; 100 mg/kg): 81.5 µM
- concentration at 0.25 h (in vivo; 100 mg/kg): 78.1 µM
- concentration at 0.5 h (in vivo; 100 mg/kg): 58.8 µM
- concentration at 1 h (in vivo; 100 mg/kg): 27.6 µM
- concentration at 2 h (in vivo; 100 mg/kg): 2.97 µM
- concentration at 8 h (in vivo; 100 mg/kg): 0.56 µM
- concentration at 24 h (in vivo; 100 mg/kg): 0.01 µM
- concentration at 0.083 h (in vivo; 300 mg/kg): 117 µM
- concentration at 0.25 h (in vivo; 300 mg/kg): 137 µM
- concentration at 0.5 h (in vivo; 300 mg/kg): 128 µM
- concentration at 1 h (in vivo; 300 mg/kg): 80 µM
- concentration at 2 h (in vivo; 300 mg/kg): 32.6 µM
- concentration at 4 h (in vivo; 300 mg/kg): 1.03 µM
- concentration at 8 h (in vivo; 300 mg/kg): 0.3 µM
- concentration at 24 h (in vivo; 300 mg/kg): 0.01 µM

Compound: IL15: cytokine added to NK-92 cells
- NK-92 activation marker expression (NK-92 cells [3]; IL15 0.00128-100 ng/ml, 18 h): increase in the expression of CD69, CXCR4, Perforin, Granzyme B, and IFNg
- pSTAT5 (15 mins) (NK-92 cells [3]; IL15 0.00128 ng/ml): 0.99
- pSTAT5 (60 mins) (NK-92 cells [3]; IL15 0.00128 ng/ml): 1.04
- CD69 (NK-92 cells [3]; IL15 0.00128 ng/ml): 1.07
- CXCR4 (NK-92 cells [3]; IL15 0.00128 ng/ml): 1.15
- Granzyme B (NK-92 cells [3]; IL15 0.00128 ng/ml): 0.88
- IFNgamma (NK-92 cells [3]; IL15 0.00128 ng/ml): 1.19
- Perforin (NK-92 cells [3]; IL15 0.00128 ng/ml): 0.85
- pSTAT5 (15 mins) (NK-92 cells [3]; IL15 0.0064 ng/ml): 1.03
- pSTAT5 (60 mins) (NK-92 cells [3]; IL15 0.0064 ng/ml): 1.26
- CD69 (NK-92 cells [3]; IL15 0.0064 ng/ml): 1.11
- CXCR4 (NK-92 cells [3]; IL15 0.0064 ng/ml): 1.19
- Granzyme B (NK-92 cells [3]; IL15 0.0064 ng/ml): 0.78
- IFNgamma (NK-92 cells [3]; IL15 0.0064 ng/ml): 0.85
- Perforin (NK-92 cells [3]; IL15 0.0064 ng/ml): 0.79
- pSTAT5 (15 mins) (NK-92 cells [3]; IL15 0.032 ng/ml): 1.23
- pSTAT5 (60 mins) (NK-92 cells [3]; IL15 0.032 ng/ml): 1.67
- CD69 (NK-92 cells [3]; IL15 0.032 ng/ml): 1.05
- CXCR4 (NK-92 cells [3]; IL15 0.032 ng/ml): 1.14
- Granzyme B (NK-92 cells [3]; IL15 0.032 ng/ml): 0.92
- IFNgamma (NK-92 cells [3]; IL15 0.032 ng/ml): 0.95
- Perforin (NK-92 cells [3]; IL15 0.032 ng/ml): 0.92
- pSTAT5 (15 mins) (NK-92 cells [3]; IL15 0.8 ng/ml): 1.76
- pSTAT5 (60 mins) (NK-92 cells [3]; IL15 0.8 ng/ml): 2.17
- CD69 (NK-92 cells [3]; IL15 0.8 ng/ml): 1.18
- CXCR4 (NK-92 cells [3]; IL15 0.8 ng/ml): 2.10
- Granzyme B (NK-92 cells [3]; IL15 0.8 ng/ml): 1.09
- IFNgamma (NK-92 cells [3]; IL15 0.8 ng/ml): 1.92
- Perforin (NK-92 cells [3]; IL15 0.8 ng/ml): 1.16
- pSTAT5 (15 mins) (NK-92 cells [3]; IL15 4 ng/ml): 1.81
- pSTAT5 (60 mins) (NK-92 cells [3]; IL15 4 ng/ml): 2.35
- CD69 (NK-92 cells [3]; IL15 4 ng/ml): 1.59
- CXCR4 (NK-92 cells [3]; IL15 4 ng/ml): 3.03
- Granzyme B (NK-92 cells [3]; IL15 4 ng/ml): 1.16
- IFNgamma (NK-92 cells [3]; IL15 4 ng/ml): 2.76
- Perforin (NK-92 cells [3]; IL15 4 ng/ml): 1.28
- pSTAT5 (15 mins) (NK-92 cells [3]; IL15 20 ng/ml): 1.96
- pSTAT5 (60 mins) (NK-92 cells [3]; IL15 20 ng/ml): 2.35
- CD69 (NK-92 cells [3]; IL15 20 ng/ml): 2.10
- CXCR4 (NK-92 cells [3]; IL15 20 ng/ml): 3.62
- Granzyme B (NK-92 cells [3]; IL15 20 ng/ml): 1.40
- IFNgamma (NK-92 cells [3]; IL15 20 ng/ml): 5.55
- Perforin (NK-92 cells [3]; IL15 20 ng/ml): 1.57
- pSTAT5 (15 mins) (NK-92 cells [3]; IL15 100 ng/ml): 1.98
- pSTAT5 (60 mins) (NK-92 cells [3]; IL15 100 ng/ml): 2.34
- CD69 (NK-92 cells [3]; IL15 100 ng/ml): 1.91
- CXCR4 (NK-92 cells [3]; IL15 100 ng/ml): 3.87
- Granzyme B (NK-92 cells [3]; IL15 100 ng/ml): 1.48
- IFNgamma (NK-92 cells [3]; IL15 100 ng/ml): 9.00
- Perforin (NK-92 cells [3]; IL15 100 ng/ml): 1.67
- NK-92 cell numbers (NK-92 cells [4]): increased cell numbers
